What was measured:
[1] = target: T1, hBMX (Homo sapiens, UniProt P51813); assay: Mass spectrometry of drug-conjugated hBMX; conditions: 2.5 mM compound, room temperature, 30 min, PBS pH 7.4; MS/MS after digestion
T1 construct: Crystallization, data collection, and structure determination of BMX catalytic domain in; made in house; host or cells: Sf-9 insect cells
Description: Mass spectrometry (MS) studies confirmed the covalent binding of JS24 at cysteine 496 of BMX. The truncated hBMX was analyzed by native MS and the protein mass found was 30899 Da (Fig. 2a). The protein was then treated with 2.5 mM of JS24 at room temperature for 30 min in PBS pH 7.4 and directly analyzed by denaturing MS. The protein was fully denatured and cleaned on a reverse phase column, discarding any non-specific binding, to retain only any covalently linked compound. The mass found upon incubation with JS24 is 31 424 Da, which is 525 Da larger than the apo-form of hBMX (Fig. 2b).
Fig. 2 Mass spectrometric analysis of BMX and JS24 conjugated to BMX. (a) Native MS analysis of hBMX. The measured molecular weight is indicated. […] The measured molecular weight is indicated. […]
The BMX enzyme system (Catalog. V4512) and the ADP-GloTM kinase assay were purchased from Promega Corporation (USA). […] Then, 10 µL of kinase detection reagent was added into the wells and incubated for 30 min to produce a luminescence signal. The signal was measured using an Infinite M200 Microplate Reader (Tecan Group Ltd, Switzerland), with an integration time of 0.250s. The observed rate constants for inhibition (kobs), at different inhibitor concentrations, were determined from the slope of a semi-logarithmic plot of inhibition versus time, and re-plotted against inhibitor concentration (nM). […]

[2] = target: PTK2 (Homo sapiens, UniProt Q05397); assay: KINOMEscan binding; conditions: read-out: % Ctrl PTK2
Description: (§1) Therefore, we included the whole TEC, EGFR and JAK family in our screening, and the Src family and Lkb1, which also have a cysteine within the same sequence alignment. We also included kinases involved in upstream (Src, FAK, PI3K, mTOR, PDK1) and downstream (Akt, PAK1, TAM) regulation of BMX signaling pathway and non-receptor tyrosine protein kinase Abl.
(§2) Kinome selectivity was performed with DiscoverX KINOMEscan™ technology.

[3] = target: T2, wild-type BMX in PC3 cells (Homo sapiens, UniProt P51813); assay: BMX degradation assay in PC3 cells (Western blot); assay type: cell-based; conditions: 10 μM; 24 h and 72 h; band intensity normalized to α-Tubulin
T2 construct: endogenous in cells; host or cells: PC3 prostate cancer cells (wild-type, untransfected)
Description: The cell proliferation depends on BMX kinase activity that was used to monitor the cellular activity of the compounds (IC50). […].  Fig. 5 (a) Intracellular target engagement in HEK293 cells transiently transfected with BMX expressing NanoLuc®-BMX fusion vector with Promega's NanoBRET™ TE Intracellular Kinase Assay. […] Band intensity was measured using ImageJ and normalized with α-Tubulin band intensity. […] Data are mean ± standard deviation obtained from at least three independent measurements (n = 3). See ESI ^† for additional data and analysis. […] | page 12: […]
degradation assay. Protein band intensity normalized with α-Tubulin band intensity and quantified using ImageJ. Data was obtained from at least three independent measurements […]
concentration against PC3 cells, plated on 6-well plates, a day after attachment. DMSO was used as a control vehicle. At 24 h and 72 h of incubation, cells were washed in 1X PBS and lysed in 100 µL RIPA Buffer (in house) supplemented with EDTA-free Protease Inhibitor Cocktail (Merk) and DNase I (Merk). The lysis procedure was performed by re-suspending cells continuously, followed by a incubation of 30 min on ice. BMX antibody (Abcam) and tubulin antibody (Cell signaling Technology) were used in the Western blot. Band intensity […]

[4] = target: PDPK1 (Homo sapiens, UniProt O15530); assay: KINOMEscan binding; conditions: read-out: % Ctrl PDPK1
Description: as §1, §2

[5] = target: TXK (Homo sapiens, UniProt P42681); assay: KINOMEscan binding; conditions: read-out: % Ctrl TXK
TXK, sequence (P42681 whole entry): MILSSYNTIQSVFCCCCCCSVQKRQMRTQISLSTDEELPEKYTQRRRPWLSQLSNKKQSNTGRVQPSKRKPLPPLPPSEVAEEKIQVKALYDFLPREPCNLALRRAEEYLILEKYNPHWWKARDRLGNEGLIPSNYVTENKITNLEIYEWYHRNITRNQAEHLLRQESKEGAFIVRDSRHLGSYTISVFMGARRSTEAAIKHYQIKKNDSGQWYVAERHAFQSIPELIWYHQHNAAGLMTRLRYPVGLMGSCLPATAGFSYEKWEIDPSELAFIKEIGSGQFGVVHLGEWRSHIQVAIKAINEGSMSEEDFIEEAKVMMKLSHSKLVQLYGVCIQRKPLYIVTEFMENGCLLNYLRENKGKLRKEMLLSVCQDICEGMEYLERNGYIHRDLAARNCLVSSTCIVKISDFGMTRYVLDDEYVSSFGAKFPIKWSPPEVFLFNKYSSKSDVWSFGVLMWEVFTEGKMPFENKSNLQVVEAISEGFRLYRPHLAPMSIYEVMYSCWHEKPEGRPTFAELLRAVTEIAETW
Description: Therefore, we included the whole TEC, EGFR and JAK family in our screening, and the Src family and Lkb1, which also have a cysteine within the same sequence alignment.
as §2

T1 sequence (P51813 417-675 limits assumed): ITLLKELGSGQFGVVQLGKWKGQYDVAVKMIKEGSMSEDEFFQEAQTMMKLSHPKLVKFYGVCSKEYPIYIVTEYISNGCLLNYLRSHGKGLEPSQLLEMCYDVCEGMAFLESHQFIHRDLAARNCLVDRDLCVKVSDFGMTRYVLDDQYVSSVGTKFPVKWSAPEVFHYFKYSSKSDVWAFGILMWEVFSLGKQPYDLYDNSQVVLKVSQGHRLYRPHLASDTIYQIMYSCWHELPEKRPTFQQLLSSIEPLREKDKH
PTK2, sequence (Q05397 whole entry): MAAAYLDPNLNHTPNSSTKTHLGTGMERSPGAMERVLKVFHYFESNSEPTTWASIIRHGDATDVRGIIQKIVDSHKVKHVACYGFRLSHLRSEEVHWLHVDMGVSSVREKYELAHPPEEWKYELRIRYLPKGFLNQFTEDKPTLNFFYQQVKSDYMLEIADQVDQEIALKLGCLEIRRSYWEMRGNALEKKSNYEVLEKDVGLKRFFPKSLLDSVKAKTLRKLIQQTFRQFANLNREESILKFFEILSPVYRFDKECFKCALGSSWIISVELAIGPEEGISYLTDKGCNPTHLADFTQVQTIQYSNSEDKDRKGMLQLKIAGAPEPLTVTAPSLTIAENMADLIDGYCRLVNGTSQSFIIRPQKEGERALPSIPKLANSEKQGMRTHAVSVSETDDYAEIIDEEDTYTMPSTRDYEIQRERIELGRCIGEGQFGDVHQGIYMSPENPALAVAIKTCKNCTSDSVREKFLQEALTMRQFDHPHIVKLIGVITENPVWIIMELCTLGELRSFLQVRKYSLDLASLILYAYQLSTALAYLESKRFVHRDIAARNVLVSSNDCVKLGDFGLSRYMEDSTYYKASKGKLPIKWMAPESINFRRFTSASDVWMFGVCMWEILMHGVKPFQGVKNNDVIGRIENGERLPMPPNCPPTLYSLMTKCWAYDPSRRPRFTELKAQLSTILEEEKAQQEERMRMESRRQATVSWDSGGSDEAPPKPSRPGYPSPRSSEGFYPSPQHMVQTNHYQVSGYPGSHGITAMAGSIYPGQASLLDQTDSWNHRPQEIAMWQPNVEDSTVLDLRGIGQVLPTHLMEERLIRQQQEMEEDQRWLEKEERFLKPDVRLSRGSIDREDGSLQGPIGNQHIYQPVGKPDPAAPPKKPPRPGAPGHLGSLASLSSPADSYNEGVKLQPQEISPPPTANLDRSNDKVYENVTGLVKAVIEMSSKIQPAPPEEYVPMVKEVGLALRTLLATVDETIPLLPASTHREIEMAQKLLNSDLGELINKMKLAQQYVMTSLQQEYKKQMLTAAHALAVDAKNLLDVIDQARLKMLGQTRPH
PDPK1, sequence (O15530 whole entry): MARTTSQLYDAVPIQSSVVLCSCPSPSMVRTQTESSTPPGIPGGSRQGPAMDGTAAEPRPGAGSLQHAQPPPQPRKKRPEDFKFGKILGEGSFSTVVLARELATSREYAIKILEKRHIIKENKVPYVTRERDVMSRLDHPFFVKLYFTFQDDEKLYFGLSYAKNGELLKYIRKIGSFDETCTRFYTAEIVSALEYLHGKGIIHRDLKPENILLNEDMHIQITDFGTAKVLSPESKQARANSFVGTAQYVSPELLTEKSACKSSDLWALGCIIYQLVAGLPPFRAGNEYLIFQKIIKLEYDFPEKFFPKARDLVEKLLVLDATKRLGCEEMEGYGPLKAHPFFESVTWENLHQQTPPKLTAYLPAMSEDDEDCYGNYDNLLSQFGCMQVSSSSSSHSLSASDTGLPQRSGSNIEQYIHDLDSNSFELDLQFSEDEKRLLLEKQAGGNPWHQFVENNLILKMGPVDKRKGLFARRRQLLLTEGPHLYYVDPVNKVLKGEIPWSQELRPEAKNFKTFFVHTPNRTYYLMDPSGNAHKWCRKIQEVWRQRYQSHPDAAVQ
T2 sequence (P51813 whole entry): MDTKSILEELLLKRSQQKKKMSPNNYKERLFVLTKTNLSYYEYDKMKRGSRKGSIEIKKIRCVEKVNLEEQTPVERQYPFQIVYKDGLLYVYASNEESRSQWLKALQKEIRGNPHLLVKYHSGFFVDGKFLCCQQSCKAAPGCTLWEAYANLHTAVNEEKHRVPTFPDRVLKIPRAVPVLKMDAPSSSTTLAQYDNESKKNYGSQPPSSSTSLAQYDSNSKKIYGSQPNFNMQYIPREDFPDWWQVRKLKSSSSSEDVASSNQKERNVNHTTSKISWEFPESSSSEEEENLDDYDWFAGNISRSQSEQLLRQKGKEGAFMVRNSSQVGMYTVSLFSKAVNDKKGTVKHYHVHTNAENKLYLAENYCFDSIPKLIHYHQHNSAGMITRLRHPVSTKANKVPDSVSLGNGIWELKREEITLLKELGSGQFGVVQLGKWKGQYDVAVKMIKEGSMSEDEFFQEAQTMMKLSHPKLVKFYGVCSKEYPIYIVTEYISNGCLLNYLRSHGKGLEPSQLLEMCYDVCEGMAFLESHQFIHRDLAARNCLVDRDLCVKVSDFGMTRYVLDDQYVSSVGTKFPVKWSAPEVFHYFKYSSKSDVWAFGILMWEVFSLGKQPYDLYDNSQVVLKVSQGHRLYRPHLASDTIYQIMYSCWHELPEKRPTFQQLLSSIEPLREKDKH

SMILES | site of covalent modification of hBMX [1] | remaining binding at 1 µM [2] | degradation of BMX protein [3] | remaining binding at 1 µM [4] | remaining binding at 1 µM [5]
C=CC(=O)Nc1cc(-n2c(=O)ccc3cnc4cc(-c5ccc(NS(C)(=O)=O)cc5)ccc4c32)ccc1C [JS24] | covalent modification at cysteine residue 496 |  |  |  | 
C=CC(=O)Nc1cc(C)cc(-n2c(=O)ccc3cnc4cc(-c5ccc(NS(C)(=O)=O)cc5)ccc4c32)c1 [JS25] |  | 93% | induce degradation of wild-type BMX in PC3 cells | 92% | 3.4%

From paper PMC8341910, “Structural and biophysical insights into the mode of covalent binding of rationally designed potent BMX inhibitors” (RSC Chemical Biology, 2020)
